Key:
[1] = tested on: erythrocytes in blood anticoagulated with sodium citrate; experiment: Blood sedimentation of citrated blood left to stand in a glass tube or blood container; type: cell-based; details: 30 minutes
Protocol: (§1) A solution of DIDS (Tokyo Chemical Industry Co., Ltd.) in physiological saline was added to blood anticoagulated with sodium citrate to a final concentration of 0.15 mg/ml or 1.5 mg/ml, respectively. The resulting mixture was mixed, and placed in a glass tube having a diameter of 6 mm (FIG. 1) or a blood container for measurement of thrombus formation (FIG. 2), followed by being left to stand.
as §1, with “DNDS” for “DIDS”, “0.02 mg/ml, 0.1 mg/ml,” for “0.15 mg/ml”, “0.2” for “1.5”, “3),” for “1) or a blood container for measurement of thrombus formation (FIG. 2),”
A solution of DNDS (Tokyo Chemical Industry Co., Ltd.) in physiological saline was added to blood anticoagulated with sodium citrate to a final concentration of 0.5 mg/ml or 1.0 mg/ml, respectively. The resulting mixture was mixed, and placed in a glass tube having a diameter of 6 mm. The glass tube was then inclined at an angle of 30°, and left to stand (FIG. 4).

[2] = tested on: citrate blood (thrombus formation; blood coagulation capacity and platelet function); experiment: Microchip capillary perfusion: pressure changes caused by formation of thrombi composed of fibrin and platelets; type: cell-based; details: for blood sedimentation: blood sample of the perfusion test; for thrombus formation (pressure pattern during perfusion): perfusion 10 μl/min for 30 minutes, collagen and tissue thromboplastin coated capillary
Protocol: The apparatus described in FIG. 12 of Patent Document 1 was used.
A capillary having a width of 300 μm, depth of 80 μm, and length of 1.5 cm formed on a microchip was coated with type I collagen (manufactured by Nitta Gelatin Inc.) and tissue thromboplastin (manufactured by Sysmex Corporation). The capillary was perfused with citrate blood supplemented with CTI (corn trypsin inhibitor) (final concentration, 50 μg/ml), calcium chloride (final concentration, 12 mM), and DIDS (final concentration, 0 or 1.5 mg/ml) or DNDS (final concentration, 0.3 mg/ml) fed from a blood container at a flow rate of 10 μl/min for 30 minutes, while changes in the pressure caused by formation of thrombi composed of fibrin and platelets were continuously measured.
FIG. 5 is a graph showing the pressure patterns during the perfusion with blood samples. The pressure reflects formation of thrombi composed of fibrin and activated platelets, and comprehensively reflects the blood coagulation capacity and the platelet function. […] B represents the pressure changes in the case of the blood sample supplemented with DIDS (1.5 mg/ml), and C represents the pressure changes in the case of the perfusion with the blood supplemented with DNDS (0.3 mg/ml).

[3] = Solubility in water; type: physicochemical

Row | Structure (SMILES) | blood sedimentation relative to the control ([1]; 0.02 mg/ml final concentration, 6 mm glass tube) | blood sedimentation relative to the control ([1]; 0.1 mg/ml final concentration, 6 mm glass tube) | blood sedimentation ([1]; 0.2 mg/ml final concentration, 6 mm glass tube) | blood sedimentation relative to the control ([1]; 0.5 mg/ml final concentration, 6 mm glass tube inclined at an angle of 30°) | blood sedimentation relative to the control ([1]; 1.0 mg/ml final concentration, 6 mm glass tube inclined at an angle of 30°) | blood sedimentation ([2]; 0.3 mg/ml) | thrombus formation (pressure pattern during perfusion) ([2]; 0.3 mg/ml) | solubility in water [3] | blood sedimentation ([1]; 0.15 mg/ml final concentration, 6 mm glass tube or blood container for measurement of thrombus formation) | blood sedimentation ([1]; 1.5 mg/ml final concentration, glass tube and container having an inclined bottom) | blood sedimentation ([2]; 1.5 mg/ml) | thrombus formation (pressure pattern during perfusion) ([2]; 1.5 mg/ml)
1 | O=[N+]([O-])c1ccc(C=Cc2ccc([N+](=O)[O-])cc2S(=O)(=O)[O-])c(S(=O)(=O)[O-])c1.[Na+].[Na+] [DNDS, disodium 4,4′-dinitrostilbene-2,2′-disulfonate] | suppressed | suppressed | almost completely suppressed | suppressed | suppressed | strongly suppresses blood sedimentation | does not affect thrombus formation | soluble in water |  |  |  | 
2 | O=S(=O)(O)c1cc(N=C=S)ccc1C=Cc1ccc(N=C=S)cc1S(=O)(=O)O [DIDS, 4,4′-Diisothiocyanatostilbene-2,2′-disulfonic acid] |  |  |  |  |  |  |  |  | rather suppressed | completely suppressed | strongly suppresses blood sedimentation | does not affect thrombus formation
